The record followed here is ChEMBL document CHEMBL3739364, “Synthesis and biological evaluation of novel 5-(hydroxamic acid)methyl oxazolidinone derivatives” (Eur J Med Chem, 2015).

In brackets after ≈: the same amount, converted by molar mass.

Data set [1] concerns Staphylococcus epidermidis. The data set can be described thus: Antibacterial activity against methicillin-sensitive Staphylococcus epidermidis ATCC 12228. The data set is classed as functional.
In a further data set the test system is Streptococcus pneumoniae. The data set can be described thus: Antibacterial activity against Streptococcus pneumoniae. The data set is classed as functional.
The test system of another data set is Escherichia coli. The data set can be described thus: Antibacterial activity against Escherichia coli ATCC 25922. The data set is classed as functional.
The next data set relates to Haemophilus influenzae. The data set can be described thus: Antibacterial activity against Haemophilus influenzae ATCC 49247. The data set is classed as functional.
The target of data set [2] is T1, MAO-A (amine oxidase [flavin-containing] A) (Homo sapiens, UniProt P21397).
T1 sequence (P21397 whole entry): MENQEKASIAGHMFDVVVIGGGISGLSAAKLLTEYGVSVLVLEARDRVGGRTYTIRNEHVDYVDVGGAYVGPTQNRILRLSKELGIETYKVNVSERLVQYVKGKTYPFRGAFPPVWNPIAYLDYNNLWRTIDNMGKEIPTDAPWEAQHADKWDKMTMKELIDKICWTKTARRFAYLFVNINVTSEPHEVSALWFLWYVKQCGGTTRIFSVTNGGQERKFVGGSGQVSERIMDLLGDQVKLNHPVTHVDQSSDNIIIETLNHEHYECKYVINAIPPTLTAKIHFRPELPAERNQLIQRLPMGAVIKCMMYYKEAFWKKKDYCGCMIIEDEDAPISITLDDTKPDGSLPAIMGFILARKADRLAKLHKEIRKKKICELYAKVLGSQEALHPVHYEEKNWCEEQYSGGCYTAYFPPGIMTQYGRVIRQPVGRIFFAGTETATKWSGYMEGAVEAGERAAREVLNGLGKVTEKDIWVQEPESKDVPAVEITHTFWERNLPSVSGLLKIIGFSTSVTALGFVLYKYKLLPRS
The data set can be described thus: Inhibition of human recombinant MAO-A using p-tyramine as substrate at 50 to 200 uM measured up to 50 mins by ELISA screening analysis. As to conditions: probe p-tyramine. Background: In an ELISA, binding on a coated surface is turned into a signal by an enzyme label.

In data set [3] the test system is Staphylococcus aureus. The data set can be described thus: Antibacterial activity against […] Staphylococcus aureus ATCC 25923. The data set is classed as functional.
Data set [4] concerns the target T2, MAO-B (amine oxidase [flavin-containing] B) (Homo sapiens, UniProt P27338).
T2 sequence (P27338 whole entry): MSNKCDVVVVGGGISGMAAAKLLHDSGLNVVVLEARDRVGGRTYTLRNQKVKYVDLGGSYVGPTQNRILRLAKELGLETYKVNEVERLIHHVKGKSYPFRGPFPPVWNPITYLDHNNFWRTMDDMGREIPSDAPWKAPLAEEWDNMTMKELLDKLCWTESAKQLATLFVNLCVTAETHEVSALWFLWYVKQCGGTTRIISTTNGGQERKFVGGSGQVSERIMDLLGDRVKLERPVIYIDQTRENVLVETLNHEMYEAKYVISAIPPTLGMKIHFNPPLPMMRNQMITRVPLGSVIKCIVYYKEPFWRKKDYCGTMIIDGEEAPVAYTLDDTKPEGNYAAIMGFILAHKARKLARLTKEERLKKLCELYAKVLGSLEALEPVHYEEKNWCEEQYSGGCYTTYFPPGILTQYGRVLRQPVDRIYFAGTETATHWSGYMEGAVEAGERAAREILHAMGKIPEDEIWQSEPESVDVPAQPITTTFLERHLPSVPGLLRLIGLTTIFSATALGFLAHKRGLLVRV
The data set can be described thus: Inhibition of human recombinant MAO-B using p-tyramine as substrate at 50 to 200 uM measured up to 50 mins by ELISA screening analysis. Particulars: probe p-tyramine.

In data set [5] the target is T3, Amine oxidase [flavin-containing] A (Homo sapiens, UniProt P21397).
T3 sequence (P21397 whole entry): T1 sequence (P21397 whole entry)
The data set can be described thus: Inhibition of human recombinant MAO-A using p-tyramine as substrate after 15 mins by UV/Vis spectrophotometer analysis.

Data set [6] concerns the target T4, Amine oxidase [flavin-containing] B (Homo sapiens, UniProt P27338).
T4 sequence (P27338 whole entry): T2 sequence (P27338 whole entry)
The data set can be described thus: Inhibition of human recombinant MAO-B using p-tyramine as substrate after 15 mins by UV/Vis spectrophotometer analysis.

The species named for another data set is Homo sapiens. The data set can be described thus: Selectivity ratio of IC50 for human recombinant MAO-A to IC50 for human recombinant MAO-B.
The subject of data set [7] is Mycobacterium tuberculosis. The data set can be described thus: Antimycobacterial activity against Mycobacterium tuberculosis H37Rv ATCC 27294. It counts as functional.
Data set [8] has as its system Staphylococcus aureus. The data set can be described thus: Antibacterial activity against […] Staphylococcus aureus ATCC 25923 after 18 hrs by broth dilution method. It counts as functional. As to conditions: ATCC 25923, 18 h. On the technique in general: Broth dilution looks for growth in wells or tubes with falling amounts of substance.
The test system of data set [9] is Staphylococcus epidermidis. The data set can be described thus: Antibacterial activity against methicillin-sensitive Staphylococcus epidermidis ATCC 12228 after 18 hrs by broth dilution method. As to conditions: ATCC 12228, 18 h. It counts as functional.
The target of data set [10] is T3, Amine oxidase [flavin-containing] A. The data set can be described thus: Reversible inhibition of human MAO-A.
Data set [11] addresses T4, Amine oxidase [flavin-containing] B. The data set can be described thus: Reversible inhibition of human MAO-B.
Data set [12] has as its system Mycobacterium tuberculosis. The data set can be described thus: Antimycobacterial activity against Mycobacterium tuberculosis H37Rv. The data set is classed as functional.

By inhibition is commonly meant how much of the control response was suppressed. As for `CC(=O)ON(C[C@H]1CN(c2ccc(N3CCN(C(C)=O)CC3)c(F)c2)C(=O)O1)C(C)=O`, the MIC (in data set [1]; in the data set with Streptococcus pneumoniae; with Escherichia coli; in the data set on Haemophilus influenzae) was greater than 32 µg/mL throughout. Moreover, the inhibition at 50 min in [2] is less than 50%.

By IC50 is commonly meant the midpoint of a concentration-inhibition curve. For `CCC(=O)N(O)C[C@H]1CN(c2ccc(N3CCOCC3)c(F)c2)C(=O)O1`, the MIC (against Staphylococcus aureus [3]; in [1]; against Streptococcus pneumoniae; against Escherichia coli; in the data set with Haemophilus influenzae) was greater than 32 µg/mL each time. Further, the inhibition at 50 min in [2] and in data set [4] was no less than 50% each time. The results for the IC50 in data set [5] and in data set [6] were 115 µM and 100 µM, respectively. Also, in the data set listed under Homo sapiens, the Ratio IC50 is 1.15.

For orientation: MIC50 means an inhibitory concentration at the 50% level, which refers to growth in some studies and to a panel of isolates in others. Read a high MIC50 as weaker potency. One may read the MIC90 as the lowest concentration that inhibits either 90% of growth or 90% of the strains tested, depending on the study. Consider `CC(=O)N(O)C[C@H]1CN(c2ccc(N3CCOCC3)c(F)c2)C(=O)O1`, for which, in data set [7], the MIC50 was determined as 1.38 µg/mL (≈ 3.91 µM). Besides, in data set [7], the MIC90 was found to be 4.6 µg/mL (≈ 13 µM). For the same molecule, the MIC was greater than 32 µg/mL against Streptococcus pneumoniae; greater than 32 µg/mL in the data set on Escherichia coli; greater than 32 µg/mL against Haemophilus influenzae; greater than 32 µg/mL against Staphylococcus aureus [8]; 16 µg/mL (≈ 45.3 µM) in data set [9]. In addition, the inhibition at 50 min in data set [2] and in [4] was less than 50% each time.

On to `CC(=O)NC[C@H]1CN(c2ccc(N3CCOCC3)c(F)c2)C(=O)O1` [LINEZOLID], for which the IC50 came out at 46 µM in data set [10] and 2.1 µM in [11]. In data set [1], this molecule registered an MIC of 2 µg/mL (≈ 5.93 µM). Further, the inhibition at 50 min in data set [2] and in data set [4] was no less than 50% throughout.

Turning to `CC(=O)ON(C[C@H]1CN(c2ccc(N3CCOCC3)c(F)c2)C(=O)O1)C(C)=O`, the MIC (in [1]; with Streptococcus pneumoniae; with Escherichia coli; with Haemophilus influenzae) was greater than 32 µg/mL throughout. Moreover, the inhibition at 50 min in data set [2] and in data set [4] was less than 50% in each case.

With `CC(=O)N1CCN(c2ccc(N3C[C@H](CN(OC(=O)C4CC4)C(=O)C4CC4)OC3=O)cc2F)CC1`, the MIC (in [1]; in the data set on Streptococcus pneumoniae; in the data set with Escherichia coli; in the data set on Haemophilus influenzae) was greater than 32 µg/mL in each case. In addition, the inhibition at 50 min in data set [2] is less than 50%.

As for `O=C(C1CC1)N(O)C[C@H]1CN(c2ccc(N3CCOCC3)c(F)c2)C(=O)O1`, the MIC (with Staphylococcus aureus [3]; in data set [1]; with Streptococcus pneumoniae; in the data set on Escherichia coli; against Haemophilus influenzae) was greater than 32 µg/mL each time. Further, the inhibition at 50 min in data set [2] and in data set [4] was no less than 50% each time. Further, the IC50 is 112 µM in data set [5] and 90.9 µM in [6]. Besides, in the data set filed under Homo sapiens, the Ratio IC50 is 1.23.

Regarding `CC(=O)N1CCN(c2ccc(N3C[C@H](CNO)OC3=O)cc2F)CC1.O=C(O)C(F)(F)F`, the MIC (with Staphylococcus aureus [3]; in data set [1]; in the data set with Streptococcus pneumoniae; in the data set with Escherichia coli; in the data set with Haemophilus influenzae) was greater than 32 µg/mL in each case. Further, the inhibition at 50 min in data set [2] is no less than 50%. The IC50 in data set [5] amounted to 46.6 µM.

In the case of `CCC(=O)ON(C[C@H]1CN(c2ccc(N3CCN(C(C)=O)CC3)c(F)c2)C(=O)O1)C(=O)CC`, the MIC (in data set [1]; against Streptococcus pneumoniae; against Escherichia coli; with Haemophilus influenzae) was greater than 32 µg/mL in each case. Besides, in data set [2], the inhibition at 50 min is less than 50%.

Consider `O=C(ON(C[C@H]1CN(c2ccc(N3CCOCC3)c(F)c2)C(=O)O1)C(=O)C1CC1)C1CC1`, for which the MIC (in [1]; in the data set with Streptococcus pneumoniae; in the data set with Escherichia coli; in the data set with Haemophilus influenzae) was greater than 32 µg/mL in each case. The inhibition at 50 min in data set [2] and in [4] was less than 50% throughout.

Regarding `CC(C)C(=O)N(O)C[C@H]1CN(c2ccc(N3CCOCC3)c(F)c2)C(=O)O1`, the MIC (with Staphylococcus aureus [3]; in [1]; in the data set on Streptococcus pneumoniae; with Escherichia coli; against Haemophilus influenzae) was greater than 32 µg/mL throughout. Besides, the inhibition at 50 min in data set [2] is less than 50%; in data set [4], no less than 50%. Besides, in data set [6], the IC50 is 107 µM.

In turn, `NC(=S)NC[C@H]1CN(c2ccc(C3CCCCC3=O)c(F)c2)C(=O)O1` (some centres not stated) showed an MIC in data set [12] of 0.06 µg/mL (≈ 0.164 µM).

Turning to `CC(=O)N1CCN(c2ccc(N3C[C@H](CN(OC(=O)C(C)C)C(=O)C(C)C)OC3=O)cc2F)CC1`, the MIC (in data set [1]; against Streptococcus pneumoniae; against Escherichia coli; with Haemophilus influenzae) was greater than 32 µg/mL each time. The inhibition at 50 min in [2] and in data set [4] was less than 50% in each case.

`CCC(=O)N(O)C[C@H]1CN(c2ccc(N3CCN(C(C)=O)CC3)c(F)c2)C(=O)O1`: the MIC (against Staphylococcus aureus [3]; in data set [1]; with Streptococcus pneumoniae; against Escherichia coli; in the data set on Haemophilus influenzae) was greater than 32 µg/mL each time. Besides, the inhibition at 50 min in [2] was less than 50%.

As for `CCC(=O)ON(C[C@H]1CN(c2ccc(N3CCOCC3)c(F)c2)C(=O)O1)C(=O)CC`, the MIC (in data set [1]; in the data set with Streptococcus pneumoniae; against Escherichia coli; in the data set with Haemophilus influenzae) was greater than 32 µg/mL in each case. The inhibition at 50 min was less than 50% in data set [2] and no less than 50% in data set [4]. Further, the IC50 in [6] was determined as 168 µM.

Take `CC(=O)N(O)C[C@H]1CN(c2ccc(N3CCN(C(C)=O)CC3)c(F)c2)C(=O)O1`: the MIC (with Staphylococcus aureus [3]; in [1]; in the data set on Streptococcus pneumoniae; against Escherichia coli; against Haemophilus influenzae) was greater than 32 µg/mL in each case. Also, the inhibition at 50 min in [2] and in [4] was less than 50% each time.

As for `O=C1O[C@@H](CNO)CN1c1ccc(N2CCOCC2)c(F)c1`, the MIC (against Staphylococcus aureus [3]; in data set [1]; in the data set on Streptococcus pneumoniae; against Escherichia coli; against Haemophilus influenzae) was greater than 32 µg/mL throughout. Also, the inhibition at 50 min in data set [2] and in data set [4] was no less than 50% each time. For the same molecule, the IC50 in [5] was 144 µM; in data set [6], 112 µM. The Ratio IC50 in the data set filed under Homo sapiens was found to be 1.29.

In the case of `Cn1nnc(-c2ccc(-c3ccc(N4C[C@H](CO)OC4=O)cc3F)cn2)n1` [TEDIZOLID], the IC50 in data set [10] turned out to be 8.7 µM; in [11] it was 5.7 µM.

Regarding `CC(C)C(=O)ON(C[C@H]1CN(c2ccc(N3CCOCC3)c(F)c2)C(=O)O1)C(=O)C(C)C`, the MIC (in data set [1]; in the data set with Streptococcus pneumoniae; in the data set with Escherichia coli; against Haemophilus influenzae) was greater than 32 µg/mL in each case. For the same molecule, the values for the inhibition at 50 min in [2] and in data set [4] were less than 50% and no less than 50%, respectively. The IC50 in data set [6] came to 108 µM.
